In this test the target is T1, akuBGL (110 kDa β-glucosidase) (Aplysia kurodai, UniProt A0A1V1FXL2).
T1 construct: gene ApBGL; native, purified from digestive fluid; signal peptide M1-D25 removed; 110 kDa; two GH1 domains (L26-T494, D513-P978); N-glycosylated at N113, N212, N645; precursor ends at M994
Description: HPLC or absorbance at […] nm of o-nitrophenol. Format: biochemical. To be noted: 2.5 mM ONPG, 49 nM akuBGL, pH 5.5, 100 mM NaCl, 10 mM CaCl2, 37 °C, 10 min.

T1 sequence (A0A1V1FXL2 entry or part of it): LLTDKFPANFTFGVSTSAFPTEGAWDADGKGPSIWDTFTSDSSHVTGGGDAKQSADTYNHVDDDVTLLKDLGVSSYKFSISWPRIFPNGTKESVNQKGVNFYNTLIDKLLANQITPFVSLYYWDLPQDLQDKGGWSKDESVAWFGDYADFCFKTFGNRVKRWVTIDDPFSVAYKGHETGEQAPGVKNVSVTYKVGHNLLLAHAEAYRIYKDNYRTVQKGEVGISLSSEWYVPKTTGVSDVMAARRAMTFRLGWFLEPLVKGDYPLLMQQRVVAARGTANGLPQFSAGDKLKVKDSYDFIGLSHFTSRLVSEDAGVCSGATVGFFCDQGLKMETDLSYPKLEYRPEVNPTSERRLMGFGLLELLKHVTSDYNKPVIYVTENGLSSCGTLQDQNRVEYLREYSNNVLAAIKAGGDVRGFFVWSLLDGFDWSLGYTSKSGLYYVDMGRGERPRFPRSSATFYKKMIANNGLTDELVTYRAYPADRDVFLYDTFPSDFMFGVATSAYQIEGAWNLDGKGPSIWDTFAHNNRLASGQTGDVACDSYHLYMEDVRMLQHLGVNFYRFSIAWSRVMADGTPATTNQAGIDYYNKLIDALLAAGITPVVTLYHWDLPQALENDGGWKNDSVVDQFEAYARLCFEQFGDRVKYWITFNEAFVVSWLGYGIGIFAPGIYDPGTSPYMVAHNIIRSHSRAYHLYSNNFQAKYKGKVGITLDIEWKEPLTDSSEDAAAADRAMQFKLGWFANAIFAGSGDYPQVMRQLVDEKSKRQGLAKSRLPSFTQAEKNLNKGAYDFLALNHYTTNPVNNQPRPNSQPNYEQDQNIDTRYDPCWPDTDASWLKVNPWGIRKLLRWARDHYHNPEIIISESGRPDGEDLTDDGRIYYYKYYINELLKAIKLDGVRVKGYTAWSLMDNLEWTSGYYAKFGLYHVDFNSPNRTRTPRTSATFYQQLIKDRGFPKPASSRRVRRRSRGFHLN

Regarding `O=[N+]([O-])c1ccccc1O[C@@H]1O[C@H](CO)[C@H](O)[C@H](O)[C@H]1O` [ortho-nitrophenyl-β-galactoside], the “HPLC or absorbance at 420 nm of o-nitrophenol” value is on record as “Ortho-nitrophenyl-β-galactoside (ONPG) was used as a substrate to measure akuBGL activity”.
